Results from patent US20150004134A1, “TREATMENT OF CANCER WITH HETEROCYCLIC INHIBITORS OF GLUTAMINASE” (Calithera Biosciences, Inc., priority 2012, published 2015).

The molecules below were run on P493-6 (myc "on") cells (assay: Cell Proliferation Assay). Details: P493-6, 72 h, read-out: Cell prolif P493 72 h IC50, P493-6 cells, 72 h.
Type: cell-based
Description: P493-6 (myc “on”) cells were maintained in growth media (RPMI-1640, 10% FBS, 2 mM glutamine, 100 units/ml Penicillin and 100 μg/ml streptomycin) at 37° C. with 5% CO2. For compound assay, P493-6 cells were plated in 96-well V-bottom plates on the day of compound addition in 50 μl of growth media at a cell density of 200,000 cells/ml (10,000 cells/well). Compounds were serially diluted in 100% DMSO at 200-times the final concentration. Compounds were diluted 100-fold into growth media and then 50 μl of this mixture was added to cell plates making the final concentration of DMSO 0.5%. Cells were incubated with compound for 72 hrs at 37° C. with 5% CO2 and analyzed for antiproliferative effects either by Cell Titer Glo (Promega) or FACS analysis using the Viacount (Millipore) kit on the Guava instrument.

| Compound | IC50 [nM] |
| --- | --- |
| O=C(Cc1ccccc1)Nc1ccc(CCCCc2nnc(NC(=O)Cc3cccc(OCCO)c3)s2)nn1 [Compound 427] | 27 |
| CN(Cc1cc(CC(=O)Nc2nnc(CCCCc3ccc(NC(=O)Cc4ccccc4)nn3)s2)ccc1F)C(=O)OC(C)(C)C [Compound 569] | 11 |
| CCCC(=O)OCN(C(=O)Cc1cccc(CC(=O)N2CCC(F)(F)CC2)c1)c1nnc(CCCCc2ccc(NC(=O)Cc3ccccc3)nn2)s1 [Compound 570] | 9 |
| CC(C)(C)OC(=O)NCc1cc(CC(=O)Nc2nnc(CCCCc3ccc(NC(=O)Cc4ccccc4)nn3)s2)ccc1F [Compound 492] | 14 |
| COc1cc(CC(=O)Nc2nnc(CCCCc3ccc(NC(=O)Cc4ccccc4)nn3)s2)ccc1O [Compound 554] | 172 |
| CCCCNC(=O)Cc1cccc(CC(=O)Nc2nnc(CCCCc3ccc(NC(=O)Cc4ccccc4)nn3)s2)c1 [Compound 496] | 17 |
| Nc1cccc(CC(=O)Nc2nnc(CCCCc3ccc(NC(=O)Cc4ccccc4)nn3)s2)c1 [Compound 409] | 37 |
| COC(C(=O)Nc1nnc(CCCCc2ccc(NC(=O)Cc3cccc(CNC(=O)CC(C)(O)C(F)(F)F)c3)nn2)s1)c1ccccc1 (stereo not shown) [Compound 605] | 18 |
| CN(C)C(=O)Cc1cccc(CC(=O)Nc2nnc(CCCCc3ccc(NC(=O)Cc4ccccc4)nn3)s2)c1 [Compound 472] | 24 |
| COc1ccc(CC(=O)Nc2nnc(CCCCc3ccc(NC(=O)Cc4ccccc4)nn3)s2)cc1O [Compound 582] | 46 |
| CC(C(=O)Nc1nnc(CCCCc2ccc(NC(=O)Cc3cccc(CNC(=O)CC(C)(O)C(F)(F)F)c3)nn2)s1)c1ccccc1 (stereo not shown) [Compound 607] | 47 |
| CC(C)(C)OC(=O)N1CCN(Cc2cc(CC(=O)Nc3nnc(CCCCc4ccc(NC(=O)Cc5ccccc5)nn4)s3)ccc2F)CC1 [Compound 493] | 57 |
| O=C(Cc1ccccc1)Nc1ccc(CCCCc2nnc(NC(=O)Cc3cccc(CNC(=O)c4ccccc4)c3)s2)nn1 [Compound 432] | 4 |
| CN(C)Cc1cccc(CC(=O)Nc2nnc(CCCCc3nnc(NC(=O)Cc4ccccc4)s3)s2)c1 [Compound 394] | 1200 |

Same assay, conditions: P493-6, 72 h, read-out: Cell prolif P493 72 h IC50, P493 cells, 72 h

| Compound | IC50 [nM] |
| --- | --- |
| O=C(Cc1ccccc1)Nc1ccc(CCCCc2nnc(NC(=O)C(O)c3ccccc3)s2)nn1 (stereo not shown) [Compound 315] | 35 |
| O=C(Cc1ccccc1)Nc1nnc(CCSCc2nnc(NC(=O)C(O)c3cccc(Cl)c3)s2)s1 (stereo not shown) [Compound 376] | 91 |
| O=C(Cc1ccc2ncccc2c1)Nc1nnc(CCSCCc2nnc(NC(=O)Cc3ccc4ncccc4c3)s2)s1 [Compound 268] | 5400 |
| COCCC(=O)Nc1nnc(CCSCCc2nnc(NC(=O)CCOC)s2)s1 [Compound 101] | 17000 |
| COc1ccccc1CC(=O)Nc1nnc(CCSCCc2nnc(NC(=O)C(CO)c3ccccc3OC)s2)s1 (stereo not shown) [Compound 246] | 1600 |
| CC(=O)Nc1nnc(CCSCCc2nnc(NC(=O)Cc3ccccc3)s2)s1 [Compound 25] | 1500 |
| COc1cccc(CC(=O)Nc2nnc(CCCCc3nnc(NC(=O)Cc4cccc(OC)c4OC)s3)s2)c1OC [Compound 260] | 84 |
| O=C(Cc1ccccc1)Nc1nnc(CCSCc2nnc(NC(=O)[C@@H](O)c3ccccc3)s2)s1 [Compound 377] | 100 |
| O=C(C[C@@H](O)C(=O)O)Nc1nnc(CCCCc2nnc(NC(=O)C[C@@H](O)C(=O)O)s2)s1 [Compound 154] | > 50000 |
| O=C(Cc1ccccc1)Nc1nnc(CCCCc2nnc(NC(=O)C(CO)c3ccccc3)s2)s1 (stereo not shown) [Compound 316] | 75 |
| CC(C)(C)OC(=O)N1CCN(Cc2cccc(CC(=O)Nc3nnc(CCSCc4nnc(NC(=O)Cc5cccc(CN6CCN(C(=O)OC(C)(C)C)CC6)c5)s4)s3)c2)CC1 [Compound 275] | 340 |
| N#Cc1ccc(CC(=O)Nc2nnc(CCSCCc3nnc(NC(=O)Cc4ccc(C#N)cc4)s3)s2)cc1 [Compound 216] | > 50000 |
| CN(Cc1cccc(CC(=O)Nc2nnc(CCCCc3nnc(NC(=O)Cc4ccccc4)s3)s2)c1)C(=O)OC(C)(C)C [Compound 391] | 27 |
| CC[C@](O)(C(=O)Nc1nnc(CCSCCc2nnc(NC(=O)[C@@](O)(CC)c3ccccc3)s2)s1)c1ccccc1 [Compound 141] | 4300 |
| O=C(Cc1cccs1)Nc1nnc(CCSCc2nnc(NC(=O)Cc3cccs3)s2)s1 [Compound 237] | 250 |
| O=C(Nc1nnc(CCCCc2nnc(NC(=O)C(O)c3cccc(Br)c3)s2)s1)C(O)c1cccc(Br)c1 (stereo not shown) [Compound 288] | 28 |
| CC(=O)N[C@@H](C(=O)Nc1nnc(CCSCCc2nnc(NC(=O)[C@H](NC(C)=O)c3ccccc3)s2)s1)c1ccccc1 [Compound 128] | > 50000 |

| Compound | IC50 [nM] |
| --- | --- |
| O=C(Nc1nnc(CCCCc2nnc(NC(=O)C(c3ccccc3)N3CCNCC3)s2)s1)C(c1ccccc1)N1CCNCC1 (stereo not shown) [Compound 77] | 34000 |
| CC1(C)OC(=O)[C@@H](CC(=O)Nc2nnc(CCCCc3nnc(NC(=O)C[C@H]4OC(C)(C)OC4=O)s3)s2)O1 [Compound 103] | > 50000 |
| O=C(Nc1nnc(CCCCc2nnc(NC(=O)C3CCCO3)s2)s1)C1CCCO1 (stereo not shown) [Compound 54] | 1600 |
| CC(C)(C)OC(=O)N1CCN(C(C(=O)Nc2nnc(CCCCc3nnc(NC(=O)C(c4ccccc4)N4CCN(C(=O)OC(C)(C)C)CC4)s3)s2)c2ccccc2)CC1 (stereo not shown) [Compound 63] | 2600 |
| CCCCOC(=O)Nc1nnc(CCCCc2nnc(NC(=O)Cc3ccccc3)s2)s1 [Compound 388] | 750 |
| CC1(C(=O)Nc2nnc(CCCCc3nnc(NC(=O)C4(C)CCCO4)s3)s2)CCCO1 (stereo not shown) [Compound 123] | 6600 |
| O=C(Nc1nnc(CCSCCc2nnc(NC(=O)C3CCCO3)s2)s1)C1CCCO1 (stereo not shown) [Compound 39] | 4500 |
| COc1ccc(CC(=O)Nc2nnc(CCCCc3nnc(NC(=O)Cc4ccc(OC)c(OC)c4)s3)s2)cc1OC [Compound 160] | > 50000 |
| COc1ccc(OC)c(CC(=O)Nc2nnc(CCCCc3nnc(NC(=O)Cc4ccccc4)s3)s2)c1 [Compound 271] | 630 |
| O=C(N[C@@H](CO)C(=O)Nc1nnc(CCSCCc2nnc(NC(=O)[C@H](CO)NC(=O)OCc3ccccc3)s2)s1)OCc1ccccc1 [Compound 138] | 2700 |
| CC(C)(CCc1nnc(NC(=O)Cc2ccccc2)s1)CCc1nnc(NC(=O)Cc2ccccc2)s1 [Compound 10] | > 50000 |
| COc1cc(C(O)C(=O)Nc2nnc(CCCCc3nnc(NC(=O)C(O)c4ccc(O)c(OC)c4)s3)s2)ccc1O (stereo not shown) [Compound 319] | 10000 |
| O=C(Cc1ccccc1)Nc1nnc(CCCCc2nnc(NC(=O)Cc3ccccc3)s2)s1 [Compound 21, N,N′-[5,5′-(butane-1,4-diyl)-bis(1,3,4-thiadiazole-5,2-diyl)]-bis(2-phenylacetamide)] | 20 |
| O=C(Cc1ccco1)Nc1nnc(CCSCCc2nnc(NC(=O)Cc3ccco3)s2)s1 [Compound 82] | 1300 |
| CC(C)(C)C(=O)OCN(C(=O)Cc1ccccc1)c1nnc(CCSCCc2nnc(N(COC(=O)C(C)(C)C)C(=O)Cc3ccccc3)s2)s1 [Compound 16] | 800 |
| O=C(Nc1nnc(CCCCc2nnc(NC(=O)C3(c4ccccc4)CCOCC3)s2)s1)C1(c2ccccc2)CCOCC1 [Compound 166] | 6800 |

Same assay, conditions: P493-6, read-out: Cell prolif P493 72 h IC50; P493 cells, 72 h

| Compound | IC50 [nM] |
| --- | --- |
| COc1ccc(C(=O)Nc2nnc(CCSCCc3nnc(NC(=O)c4ccc(OC)cc4)s3)s2)cc1 [Compound 3] | > 50000 |

Same assay, conditions: read-out: Cell prolif P493 72 h IC50; 72 h

| Compound | IC50 [nM] |
| --- | --- |
| [2H]C([2H])(CCc1nnc(NC(=O)Cc2ccccn2)s1)C([2H])([2H])c1ccc(NC(=O)Cc2cccc(OC(F)(F)F)c2)nn1 [Compound 727] | 12 |
